Experimental data as given in PubChem BioAssay AID248 (DTP/NCI, 2004).
Several values for one entry are separate records, joined by “and”; a condition that tells them apart may be missing. Equal values may be shown once. Inconclusive results and toxic doses are left out. Cut-off read from the data, not from the text of the source: active = T/C of 150% or more; inactive = T/C below 125%.

Test system: L1210 leukemia ip in BDF1 mice, survival T/C
Assay: NCI In Vivo Anticancer Drug Screen. Data for tumor model L1210 Leukemia (intraperitoneal) in B6D2F1 (BDF1) mice
Settings: endpoint: mean survival time, higher = longer survival
In short: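 Each compound was tested against a transplantable tumor grown in mice. The endpoint was survival, with treated animals benchmarked against vehicle controls as a simple ratio.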

[1] = dose: 100.0 mg/kg/injection, schedule: Q01DX001 (ip), vehicle: saline
[2] = dose: 200.0 mg/kg/injection, schedule: Q01DX001 (ip), vehicle: saline
[3] = dose: 400.0 mg/kg/injection, schedule: Q01DX001 (ip), vehicle: saline
[4] = dose: 100.0 mg/kg/injection, schedule: Q01DX009 (ip), vehicle: saline
[5] = dose: 100.0 mg/kg/injection, schedule: Q04DX003 (ip), vehicle: saline
[6] = dose: 200.0 mg/kg/injection, schedule: Q01DX009 (ip), vehicle: saline
[7] = dose: 200.0 mg/kg/injection, schedule: Q04DX003 (ip), vehicle: saline
[8] = dose: 400.0 mg/kg/injection, schedule: Q01DX009 (ip), vehicle: saline
[9] = dose: 400.0 mg/kg/injection, schedule: Q04DX003 (ip), vehicle: saline
[10] = dose: 100.0 mg/kg/injection, schedule: Q01DX001 (ip), vehicle: Klucel (hydroxypropylcellulose) (HPC)
[11] = dose: 400.0 mg/kg/injection, schedule: Q01DX001 (ip), vehicle: Klucel (hydroxypropylcellulose) (HPC)
[12] = dose: 200.0 mg/kg/injection, schedule: Q01DX001 (ip), vehicle: Klucel (hydroxypropylcellulose) (HPC)
[13] = dose: 50.0 mg/kg/injection, schedule: Q04DX003 (ip), vehicle: Klucel (hydroxypropylcellulose) (HPC)
[14] = dose: 100.0 mg/kg/injection, schedule: Q04DX003 (ip), vehicle: Klucel (hydroxypropylcellulose) (HPC)
[15] = dose: 200.0 mg/kg/injection, schedule: Q04DX003 (ip), vehicle: Klucel (hydroxypropylcellulose) (HPC)
[16] = dose: 100.0 mg/kg/injection, schedule: Q01DX001 (ip), vehicle: carboxymethylcellulose (CMC)
[17] = dose: 200.0 mg/kg/injection, schedule: Q01DX001 (ip), vehicle: carboxymethylcellulose (CMC)
[18] = dose: 100.0 mg/kg/injection, schedule: Q01DX009 (ip), vehicle: Klucel (hydroxypropylcellulose) (HPC)
[19] = dose: 200.0 mg/kg/injection, schedule: Q01DX009 (ip), vehicle: Klucel (hydroxypropylcellulose) (HPC)

Measured: T/C

Cc1nnc2ccnn2c1C
inactive: [1] 96 % of control | [2] 96 % of control | [3] 100 % of control

Cc1ccc(O)cc1Cl
inactive: [4] 104 % of control | [5] 95 % of control | [6] 101 % of control | [7] 104 % of control | [8] 95 % of control | [9] 96 % of control

CCOP(N)(=O)SC (stereo not given)
inactive: dose: 5.0 mg/kg/injection, schedule: Q01DX001 (ip), vehicle: saline 101 % of control

N#Cc1c(F)c(F)c(C(F)(F)F)c(F)c1F
inactive: dose: 6.0 mg/kg/injection, schedule: Q01DX009 (ip), vehicle: saline with Tween-80 103 % of control | dose: 12.0 mg/kg/injection, schedule: Q01DX009 (ip), vehicle: saline with Tween-80 104 % of control | dose: 25.0 mg/kg/injection, schedule: Q01DX009 (ip), vehicle: saline with Tween-80 93 % of control | dose: 50.0 mg/kg/injection, schedule: Q01DX009 (ip), vehicle: other 103 % of control

O=C(O)/C=C(\CC(=O)O)C(=O)O
inactive: [10] 95 % of control | [1] 92 % of control | [2] 90 % of control | [11] 95 % of control | [3] 98 % of control

Nc1ncnc2c1nc(Br)n2C1OC(CO)C(O)C1O (stereo not given)
inactive: [5] 97 % of control | [7] 101 % of control | [9] 101 % of control

N=c1ccn(CC(O)COc2ccccc2)cc1 (stereo not given)
inactive: [1] 102 % of control

O=C(O)Cc1ccc([N+](=O)[O-])cc1
inactive: dose: 100.0 mg/kg/injection, schedule: Q01DX009 (ip), vehicle: saline with Tween-80 90 % of control | dose: 200.0 mg/kg/injection, schedule: Q01DX009 (ip), vehicle: saline with Tween-80 93 % of control | dose: 400.0 mg/kg/injection, schedule: Q01DX009 (ip), vehicle: saline with Tween-80 94 % of control

Cc1cc(C(c2ccccc2)c2ccccc2)cc(C)c1O
inactive: [10] 98 % of control | [12] 93 % of control | [11] 92 % of control

CC(C)N(C(=S)SC(=S)N(C(C)C)C(C)C)C(C)C
inactive: [13] 93 % of control | [14] 90 % of control | [15] 96 % of control

Cc1ccc(N(Cc2ccccc2)Cc2ccccc2)cc1
inactive: dose: 75.0 mg/kg/injection, schedule: Q01DX009 (ip), vehicle: other 103 % of control | dose: 100.0 mg/kg/injection, schedule: Q04DX002 (ip), vehicle: other 105 % of control | dose: 150.0 mg/kg/injection, schedule: Q01DX009 (ip), vehicle: other 106 % of control | dose: 200.0 mg/kg/injection, schedule: Q04DX002 (ip), vehicle: other 97 % of control | dose: 300.0 mg/kg/injection, schedule: Q01DX009 (ip), vehicle: other 98 % of control | dose: 400.0 mg/kg/injection, schedule: Q04DX002 (ip), vehicle: other 97 % of control

CCCCCCCCCCCCOP(=S)(S)OCCCCCCCCCCCC.[Cd]
inactive: dose: 1.56 mg/kg/injection, schedule: Q01DX009 (ip), vehicle: saline with Tween-80 102 % of control | dose: 3.13 mg/kg/injection, schedule: Q01DX009 (ip), vehicle: saline with Tween-80 97 % of control | dose: 6.25 mg/kg/injection, schedule: Q01DX009 (ip), vehicle: saline with Tween-80 96 % of control | dose: 50.0 mg/kg/injection, schedule: Q04DX002 (ip), vehicle: saline with Tween-80 94 % of control | dose: 100.0 mg/kg/injection, schedule: Q04DX002 (ip), vehicle: saline with Tween-80 86 % of control and 91 % of control

Cn1c(N)c(C(=O)CCCc2ccc(N(CCCl)CCCl)cc2)c(=O)n(C)c1=O
inactive: dose: 50.0 mg/kg/injection, schedule: Q01DX001 (ip), vehicle: carboxymethylcellulose (CMC) 102 % of control | [16] 107 % of control | [17] 105 % of control | dose: 400.0 mg/kg/injection, schedule: Q01DX001 (ip), vehicle: carboxymethylcellulose (CMC) 102 % of control

Cc1cc2c3ccccc3c3ccccc3c2nn1
inactive: [1] 103 % of control | [2] 101 % of control | [3] 100 % of control

O=C1C=C(C2CCCCC2)C(=O)C2CCCCC12 (stereo not given)
inactive: [10] 107 % of control | [4] 92 % of control | [12] 105 % of control | [6] 91 % of control | [11] 114 % of control | [8] 86 % of control

COC(=O)CC(O)(CC(=O)OC)C(=O)OC
inactive: [18] 93 % of control | [19] 104 % of control | dose: 400.0 mg/kg/injection, schedule: Q01DX009 (ip), vehicle: Klucel (hydroxypropylcellulose) (HPC) 93 % of control

Cc1nnc(NC(=O)CCl)s1
inactive: dose: 100.0 mg/kg/injection, schedule: Q01DX001 (ip), vehicle: other 107 % of control | [18] 98 % of control | dose: 100.0 mg/kg/injection, schedule: Q04DX003 (ip), vehicle: other 98 % of control | dose: 200.0 mg/kg/injection, schedule: Q01DX001 (ip), vehicle: other 100 % of control | dose: 200.0 mg/kg/injection, schedule: Q04DX003 (ip), vehicle: other 106 % of control | dose: 400.0 mg/kg/injection, schedule: Q01DX001 (ip), vehicle: other 98 % of control | dose: 400.0 mg/kg/injection, schedule: Q04DX003 (ip), vehicle: other 101 % of control

c1ccc(-c2ccc([Si](c3ccccc3)(c3ccccc3)c3ccc(-c4ccccc4)cc3)cc2)cc1
inactive: dose: 50.0 mg/kg/injection, schedule: Q01DX009 (ip), vehicle: Klucel (hydroxypropylcellulose) (HPC) 104 % of control | [13] 94 % of control | [18] 93 % of control | [14] 96 % of control | [19] 87 % of control | [15] 98 % of control

COc1ccc(C(=O)OCc2ccccc2CN(C)C)cc1
inactive: dose: 100.0 mg/kg/injection, schedule: Q04DX002 (ip), vehicle: saline 105 % of control | dose: 200.0 mg/kg/injection, schedule: Q04DX002 (ip), vehicle: saline 105 % of control

NC(=O)N/N=C/CSCc1ccccc1
inactive: dose: 100.0 mg/kg/injection, schedule: Q04DX003 (ip), vehicle: saline with Tween-80 102 % of control | dose: 200.0 mg/kg/injection, schedule: Q04DX003 (ip), vehicle: saline with Tween-80 97 % of control | dose: 400.0 mg/kg/injection, schedule: Q04DX003 (ip), vehicle: saline with Tween-80 92 % of control

O=C(C[n+]1ccccc1Br)c1ccc2ccccc2c1
inactive: dose: 9.38 mg/kg/injection, schedule: Q01DX001 (ip), vehicle: other 104 % of control | dose: 18.75 mg/kg/injection, schedule: Q01DX001 (ip), vehicle: other 103 % of control | dose: 37.5 mg/kg/injection, schedule: Q01DX001 (ip), vehicle: other 103 % of control

O=C1CCC(=O)N1CCc1csc2ccccc12
inactive: [16] 110 % of control | dose: 177.6 mg/kg/injection, schedule: Q01DX001 (ip), vehicle: carboxymethylcellulose (CMC) 95 % of control and 92 % of control | [17] 96 % of control | dose: 266.8 mg/kg/injection, schedule: Q01DX001 (ip), vehicle: carboxymethylcellulose (CMC) 93 % of control and 94 % of control | dose: 600.0 mg/kg/injection, schedule: Q01DX001 (ip), vehicle: carboxymethylcellulose (CMC) 101 % of control and 91 % of control
